These are literature values, as cited in patent US20110151017A1, “OPHTHALMIC SOLUTIONS WITH IMPROVED DISINFECTION PROFILES” (priority 2009, published 2011).

The structures appear in SMILES notation.

The conditions of this data set: aqueous solution, forming tetrahydroxyborate.

`OB(O)O` [Boric acid]: the Ka is 5.8e-10 mol/L.
